Test system: C57BL/6 male mice
Assay: Glucose tolerance test in mice with triacylglycerols: plasma GLP-1 concentration (ELISA)
Format: in vivo
Settings: 300 μl sample oral per mouse; glucose 2.5 g/kg 60 minutes after sample; blood 30 minutes after glucose; mean±standard error
Procedure: A glucose tolerance test was carried out by the following method to examine effects of administration of triacylglycerol to mice on the plasma GLP-1 secretion during glucose tolerance.
To the PBS solution (10 ml) obtained in the same manner as in the (1-1) above, 50 mg of carboxymethyl cellulose (trade name “Carboxymethyl cellulose sodium”, manufactured by FUJIFILM Wako Pure Chemical Industries, Ltd.) was added and mixed to obtain a carrier solution. To the obtained carrier solution, 2 g of triacylglycerol (trade name “Tridecanoin <Tricaprin>”, manufactured by New Check Prep Co., Ltd.) in which the constituent fatty acids were all capric acid was added and mixed while heating to obtain TriC10 sample.
A carrier solution was obtained in the same manner as in the (1-2) above. […]
Plasma was prepared from the obtained blood by a conventional method, and the plasma GLP-1 concentration (pM) was measured. Note here that the plasma GLP-1 concentration was measured by ELISA using a commercially available kit (trade name “Glucagon Like Peptide-1 (Active) ELISA”, manufactured by Sigma-Aldrich). […]

CCCCCCCCCC(=O)OCC(COC(=O)CCCCCCCCC)OC(=O)CCCCCCCCC [TriC10, Tridecanoin <Tricaprin>]
GLP-1 CONCENTRATION (plasma): 2.803 ± 0.952 pM
